Assay results published in patent publication EP3807270B1, “NOVEL HETEROARYL HETEROCYCLYL COMPOUNDS FOR THE TREATMENT OF AUTOIMMUNE DISEASE” (F. Hoffmann-La Roche AG, priority 2018, dated 2019).

target: T1, hTLR7 (Homo sapiens, UniProt Q9NYK1); assay: HEK293-Blue-hTLR-7 cells assay (SEAP reporter, R848 stimulation); format: cell-based; parameters: host or cells: HEK293 (HEK-Blue); settings: HEK293-Blue-hTLR7 cells, R848, 20 hrs; read-out: HEK/hTLR7 IC50
T1 sequence (Q9NYK1 27-1049): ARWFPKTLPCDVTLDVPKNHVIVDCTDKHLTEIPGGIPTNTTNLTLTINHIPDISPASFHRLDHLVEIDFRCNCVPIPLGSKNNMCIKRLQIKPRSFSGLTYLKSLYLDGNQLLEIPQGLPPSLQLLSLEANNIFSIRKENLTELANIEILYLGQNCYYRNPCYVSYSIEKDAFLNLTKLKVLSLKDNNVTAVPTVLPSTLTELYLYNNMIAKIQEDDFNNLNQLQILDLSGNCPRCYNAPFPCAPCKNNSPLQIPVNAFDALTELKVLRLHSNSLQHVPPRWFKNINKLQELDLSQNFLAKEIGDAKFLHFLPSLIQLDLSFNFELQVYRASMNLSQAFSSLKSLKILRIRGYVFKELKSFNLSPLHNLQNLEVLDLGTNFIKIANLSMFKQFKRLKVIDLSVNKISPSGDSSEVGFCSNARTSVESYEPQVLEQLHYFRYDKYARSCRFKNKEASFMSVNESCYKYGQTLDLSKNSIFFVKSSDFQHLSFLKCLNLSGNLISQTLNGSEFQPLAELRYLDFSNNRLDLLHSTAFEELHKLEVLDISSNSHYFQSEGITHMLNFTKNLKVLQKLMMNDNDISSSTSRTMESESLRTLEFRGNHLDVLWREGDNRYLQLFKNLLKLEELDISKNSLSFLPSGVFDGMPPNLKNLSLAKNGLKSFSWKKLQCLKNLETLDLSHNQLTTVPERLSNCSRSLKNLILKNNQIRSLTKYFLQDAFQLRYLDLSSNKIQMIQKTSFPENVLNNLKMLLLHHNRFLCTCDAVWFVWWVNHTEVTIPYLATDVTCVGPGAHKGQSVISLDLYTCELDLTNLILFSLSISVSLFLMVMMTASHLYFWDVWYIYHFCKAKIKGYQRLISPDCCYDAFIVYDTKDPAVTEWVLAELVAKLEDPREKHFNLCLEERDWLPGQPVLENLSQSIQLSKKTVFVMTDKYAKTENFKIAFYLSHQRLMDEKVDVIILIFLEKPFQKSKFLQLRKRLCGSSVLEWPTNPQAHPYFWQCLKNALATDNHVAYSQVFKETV
Excerpt: A stable HEK293-Blue-hTLR-7 cell line was purchased from InvivoGen (Cat.#: hkb-htlr7, San Diego, California, USA). These cells were originally designed for studying the stimulation of human TLR7 by monitoring the activation of NF-κB. A SEAP (secreted embryonic alkaline phosphatase) reporter gene was placed under the control of the IFN-β minimal promoter fused to five NF-κB and AP-1-binding sites. The SEAP was induced by activating NF-xB and AP-1 via stimulating HEK-Blue hTT,R7 cells with TLR7 ligands. Therefore, the reporter expression was declined by TLR7 antagonist under the stimulation of a ligand, such as R848 (Resiquimod), for incubation of 20 hrs. The cell culture supernatant SEAP reporter activity was determined using QUANTI-Blue™ kit (Cat.#: rep-qb1, Invivogen, San Diego, Ca, USA) at a wavelength of 640 nm, a detection medium that turns purple or blue in the presence of alkaline phosphatase.
HEK293-Blue-hTLR7 cells were incubated at a density of 250,000-450,000 cells/mL in a volume of 170 µL in a 96-well plate in Dulbecco's Modified Eagle's medium (DMEM) containing 4.5 g/L glucose, 50 U/mL penicillin, […], […], 2 mM L-glutamine, 10% (v/v) heat-inactivated fetal bovine serum with addition of 20 µL test compound in a serial dilution in the presence of final DMSO at 1% and 10 µL of 20uM R848 in above DMEM, perform incubation under 37 °C in a CO2 incubator for 20 hrs. Then 20 µL of the supernatant from each well was incubated with 180 µL Quanti-blue substrate solution at 37 °C for 2 hrs and the absorbance was read at 620-655 nm using a spectrophotometer. The signaling pathway that TLR7 activation leads to downstream NF-xB activation has been widely accepted, and therefore similar reporter assay was modified for evaluating TLR7 antagonist.

Structure (SMILES) | IC50 [nM]
C[C@@H]1CN(c2ccc(C#N)c3nccnc23)C[C@H](CN2CCN(c3cc4c(cn3)CN[C@@H](C)C4)CC2)O1 (single isomer, unassigned) [Example 84] | 7
C[C@@H]1CN(c2ccc(C#N)c3ncccc23)C[C@H](CN2CC3(C2)CN(c2cnc4c(c2)CCNC4)CCO3)O1 [Example 46, 5-[(2R,6S)-2-methyl-6-[[8-(5,6,7,8-tetrahydro-1,7-naphthyridin-3-yl)-5-oxa-2,8-diazaspiro[3.5]nonan-2-yl]methyl]morpholin-4-yl]quinoline-8-carbonitrile] | 12
C[C@@H]1CN(c2ccc(C#N)c3nccnc23)C[C@H](CN2CCN(c3cc4c(cn3)[C@H](C)NCC4)CC2)O1 (single isomer, unassigned) [Example 85] | 5
C[C@@H]1CN(c2ccc(C#N)c3ncccc23)C[C@H](CN2C[C@H]3CN(c4ccc5c(n4)CCNC5)CC[C@@H]32)O1 (single isomer, unassigned) [Example 54] | 6
C[C@@H]1CN(c2ccc(C#N)c3ncccc23)C[C@H](CN2CCN(c3ccc4c(n3)[C@H](C)NC4)CC2)O1 (single isomer, unassigned) [Example 66] | 14
C[C@@H]1CN(c2ccc(C#N)c3ncccc23)C[C@H](CN2CCCN(c3ncc4c(n3)CCNC4)CC2)O1 [Example 39, 5-[(2R,6S)-2-methyl-6-[[4-(5,6,7,8-tetrahydropyrido[4,3-d]pyrimidin-2-yl)-1,4-diazepan-1-yl]methyl]morpholin-4-yl]quinoline-8-carbonitrile] | 8
C[C@@H]1CN(c2ccc(C#N)c3ncccc23)C[C@H](CN2CCN(c3ncc4c(n3)CNCC4)CC2)O1 [Example 12, 5-[(2R,6S)-2-methyl-6-[[4-(5,6,7,8-tetrahydropyrido[3,4-d]pyrimidin-2-yl)piperazin-1-yl]methyl]morpholin-4-yl]quinoline-8-carbonitrile] | 11
C[C@@H]1CN(c2ccc(C#N)c3ncccc23)C[C@H](CN2CCN(c3cnc4c(c3)CN[C@H]4C)CC2)O1 (single isomer, unassigned) [Example 67] | 13
C[C@@H]1CN(c2ccc(C#N)c3ncccc23)C[C@H](CN2CCCN(c3nc4c(s3)CNCC4)CC2)O1 [Example 33, 5-[(2R,6S)-2-methyl-6-[[4-(4,5,6,7-tetrahydrothiazolo[5,4-c]pyridin-2-yl)-1,4-diazepan-1-yl]methyl]morpholin-4-yl]quinoline-8-carbonitrile] | 17
C[C@@H]1CN(c2ccc(C#N)c3ncccc23)C[C@H](CN2CCN(c3ccc4c(c3)CNC4)[C@@H](CO)C2)O1 [Example 4, 5-[(2S,6R)-2-[[(3R)-3-(hydroxymethyl)-4-isoindolin-5-yl-piperazin-1-yl]methyl]-6-methyl-morpholin-4-yl]quinoline-8-carbonitrile] | 64
C[C@@H]1CN(c2ccc(C#N)c3ncccc23)C[C@H](CN2CCN(c3cnc4c(n3)CNCC4)CC2)O1 [Example 40, 5-[(2R,6S)-2-methyl-6-[[4-(5,6,7,8-tetrahydropyrido[3,4-b]pyrazin-3-yl)piperazin-1-yl]methyl]morpholin-4-yl]quinoline-8-carbonitrile] | 7
C[C@@H]1CN(c2ccc(C#N)c3ncccc23)C[C@H](CN2CCN(c3cc4c(cn3)[C@H](C)NCC4)CC2)O1 (single isomer, unassigned) [Example 72] | 13
C[C@@H]1CN(c2ccc(C#N)c3nccnc23)C[C@H](CN2CCN(c3cc4c(cn3)C[C@H](C)NC4)CC2)O1 (single isomer, unassigned) [Example 81] | 5

Further molecules by falling IC50, results first:

IC50 [nM] | Structure (SMILES)
39 | C[C@@H]1CN(c2ccc(C#N)n3ncc(F)c23)C[C@H](CN2CCN(c3cnc4c(c3)CNC4)CC2)O1 [Example 26, 4-[(2S,6R)-2-[[4-(6,7-dihydro-5H-pyrrolo[3,4-b]pyridin-3-yl)piperazin-1-yl]methyl]-6-methyl-morpholin-4-yl]-3-fluoro-pyrazolo[1,5-a]pyridine-7-carbonitrile]
32 | C[C@@H]1CN(c2ccc(C#N)c3ncccc23)C[C@H](CN2CCN(c3ccc4c(c3)CCNC4CO)CC2)O1 (stereo partly drawn) [Example 24, 5-[(2S,6R)-2-[[4-[1-(hydroxymethyl)-1,2,3,4-tetrahydroisoquinolin-6-yl]piperazin-1-yl]methyl]-6-methyl-morpholin-4-yl]quinoline-8-carbonitrile]
26 | C[C@@H]1CN(c2ccc(C#N)c3ncccc23)C[C@H](CN2CC3(CCN3c3ccc4c(n3)CCNC4)C2)O1 [Example 36, 5-[(2R,6S)-2-methyl-6-[[1-(5,6,7,8-tetrahydro-1,6-naphthyridin-2-yl)-1,6-diazaspiro[3.3]heptan-6-yl]methyl]morpholin-4-yl]quinoline-8-carbonitrile]
20 | C[C@@H]1CN(c2ccc(C#N)c3ncccc23)C[C@H](CN2CCC(Nc3ncc4c(n3)CCNC4)C2)O1 (stereo partly drawn) [Example 57, 5-[(2R,6S)-2-methyl-6-[[3-(5,6,7,8-tetrahydropyrido [4,3-d]pyrimidin-2-ylamino)pyrrolidin-1-yl]methyl]morpholin-4-yl] quinoline-8-carbonitrile]
12 | C[C@@H]1CN(c2ccc(C#N)c3ncccc23)C[C@H](CN2CCN(c3cnc4c(c3)CNCC4)C(C)(C)C2)O1 [Example 56, 5-[(2S,6R)-2-[[3,3-dimethyl-4-(5,6,7,8-tetrahydro-1,6-naphthyridin-3-yl)piperazin-1-yl]methyl]-6-methyl-morpholin-4-yl]quinoline-8-carbonitrile]
12 | C[C@@H]1CN(c2ccc(C#N)c3ncccc23)C[C@H](CN2CC3(C2)CN(c2cnc4c(c2)CNCC4)CCO3)O1 [Example 47, 5-[(2R,6S)-2-methyl-6-[[8-(5,6,7,8-tetrahydro-1,6-naphthyridin-3-yl)-5-oxa-2,8-diazaspiro[3.5]nonan-2-yl]methyl]morpholin-4-yl]quinoline-8-carbonitrile]
11 | C[C@@H]1CN(c2ccc(C#N)c3ncccc23)C[C@H](CN2CCN(c3ccc4c(n3)CN[C@H]4C)CC2)O1 (single isomer, unassigned) [Example 63]
11 | C[C@@H]1CN(c2ccc(C#N)c3ncccc23)C[C@H](CN2CCN(c3nc4c(s3)CNCC4)CC2)O1 [Example 31, 5-[(2R,6S)-2-methyl-6-[[4-(4,5,6,7-tetrahydrothiazolo[5,4-c]pyridin-2-yl)piperazin-1-yl]methyl]morpholin-4-yl]quinoline-8-carbonitrile]
11 | CC1NCc2cc(N3CCN(C[C@H]4CN(c5ccc(C#N)c6ncccc56)C[C@@H](C)O4)CC3)ccc21 (stereo partly drawn) [Example 28, 5-[(2R,6S)-2-methyl-6-[[4-(1-methylisoindolin-5-yl)piperazin-1-yl]methyl]morpholin-4-yl]quinoline-8-carbonitrile]
8 | C[C@@H]1CN(c2ccc(C#N)c3nccnc23)C[C@H](CN2CCN(c3ccc4c(n3)CN[C@@H]4C)CC2)O1 (single isomer, unassigned) [Example 79]
5 | C[C@@H]1CN(c2ccc(C#N)c3ncccc23)C[C@H](CN2CCN(c3ncnc4c3CNCC4)CC2)O1 [Example 61, 5-[(2R,6S)-2-methyl-6-[[4-(5,6,7,8-tetrahydropyrido[4,3-d]pyrimidin-4-yl)piperazin-1-yl]methyl]morpholin-4-yl]quinoline-8-carbonitrile]
